Experiments:
[1] = system: bedstraw; test: Test B pre/postemergence bedstraw; format: in vivo, Galium aparine
Method in brief: (§1)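 Response is a visual 0-to-10 score relative to untreated plants, where 0 means no effect and 10 means complete control, taken twelve to sixteen days after application. Treatments went onto soil at planting and onto foliage of 1- to 4-leaf plants, using a surfactant-containing non-phytotoxic solvent.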

[2] = system: blackgrass; test: Test B pre/postemergence blackgrass; format: in vivo, Alopecurus myosuroides
Method in brief: as §1

[3] = system: surinam grass; test: Test B pre/postemergence surinam grass; format: in vivo, Brachiaria decumbens
Method in brief: as §1

[4] = system: cocklebur; test: Test B pre/postemergence cocklebur; format: in vivo, Xanthium strumarium
Method in brief: as §1

[5] = system: corn; test: Test B pre/postemergence corn; format: in vivo, Zea mays
Method in brief: as §1

[6] = system: crabgrass; test: Test B pre/postemergence crabgrass; format: in vivo, Digitaria sanguinalis
Method in brief: as §1

[7] = system: giant foxtail; test: Test B pre/postemergence giant foxtail; format: in vivo, Setaria faberii
Method in brief: as §1

[8] = system: morningglory; test: Test B pre/postemergence morningglory; format: in vivo, Ipomoea hederacea
Method in brief: as §1

[9] = system: pigweed; test: Test B pre/postemergence pigweed; format: in vivo, Amaranthus retroflexus
Method in brief: as §1

[10] = system: rape; test: Test B pre/postemergence rape; format: in vivo, Brassica napus
Method in brief: as §1

[11] = system: soybean; test: Test B pre/postemergence soybean; format: in vivo, Glycine max
Method in brief: as §1

[12] = system: sugar beet; test: Test B pre/postemergence sugar beet; format: in vivo, Beta vulgaris
Method in brief: as §1

[13] = system: velvetleaf; test: Test B pre/postemergence velvetleaf; format: in vivo, Abutilon theophrasti
Method in brief: as §1

[14] = system: wheat; test: Test B pre/postemergence wheat; format: in vivo, Triticum aestivum
Method in brief: as §1

[15] = system: wild oat; test: Test B pre/postemergence wild oat; format: in vivo, Avena fatua
Method in brief: as §1

[16] = system: purple nutsedge; test: Test B pre/postemergence purple nutsedge; format: in vivo, Cyperus rotundus
Method in brief: as §1

[17] = Preemergence, Rate 125 g/ha, scale of 0 to 10 where 0 is no effect and 10 is complete control
[18] = Preemergence, Rate 250 g/ha, scale 0 (no effect) to 10 (complete control)
[19] = Rate 62 g/ha, Preemergence, scale 0 to 10
[20] = Rate 500 g/ha, Preemergence, scale 0 to 10 (0 no effect, 10 complete control)
[21] = Postemergence, Rate 62 g/ha, scale 0 to 10, 0 is no effect, 10 is complete control
[22] = Postemergence, Rate 125 g/ha, scale of 0 to 10 where 0 is no effect and 10 is complete control
[23] = Rate 250 g/ha, Postemergence, scale 0 to 10, 0 is no effect, 10 is complete control
[24] = Rate 500 g/ha, Postemergence, scale 0 to 10, 0 is no effect, 10 is complete control

COC(CCl)n1c(=O)on(C(=O)N(c2ccc(F)cc2F)C(C)C)c1=O (stereo not shown) [Compound 737]
9: Plant response rating, Blackgrass [2, 17] | Blackgrass plant response rating [2, 18] | B. signalgrass plant response rating [3, 20] | Plant response rating, Crabgrass [6, 17] | Giant foxtail plant response rating [7, 19] | Wild oats plant response rating [15, 20]
10: Blackgrass plant response rating [2, 20] | Crabgrass plant response rating [6, 18] | Crabgrass plant response rating [6, 20] | Plant response rating, Giant foxtail [7, 17] | Giant foxtail plant response rating [7, 18] | Giant foxtail plant response rating [7, 20]
3: Corn plant response rating [5, 18] | Morningglory plant response rating [8, 20] | Plant response rating, Redroot pigweed [9, 17]
5: Rape plant response rating [10, 18] | Plant response rating, Sugarbeets [12, 17] | Velvetleaf plant response rating [13, 20] | Wild oats plant response rating [15, 19]
1: Morningglory plant response rating [8, 19] | Sugarbeets plant response rating [12, 19]
0: Plant response rating, Bedstraw [1, 17] | Bedstraw plant response rating [1, 18] | Bedstraw plant response rating [1, 19] | Bedstraw plant response rating [1, 20] | Plant response rating, Cocklebur [4, 17] | Cocklebur plant response rating [4, 18] | Cocklebur plant response rating [4, 19] | Cocklebur plant response rating [4, 20] | Corn plant response rating [5, 19] | Plant response rating, Rape [10, 17] | Rape plant response rating [10, 19] | Plant response rating, Soybean [11, 17] | Soybean plant response rating [11, 18] | Soybean plant response rating [11, 19] | Soybean plant response rating [11, 20] | Plant response rating, Velvetleaf [13, 17] | Velvetleaf plant response rating [13, 19] | Plant response rating, Wheat [14, 17] | Wheat plant response rating [14, 19] | Plant response rating, Nutsedge [16, 17] | Nutsedge plant response rating [16, 18] | Nutsedge plant response rating [16, 19] | Nutsedge plant response rating [16, 20]
8: B. signalgrass plant response rating [3, 18] | Crabgrass plant response rating [6, 19] | Redroot pigweed plant response rating [9, 20] | Wild oats plant response rating [15, 18]
2: Plant response rating, Corn [5, 17] | Plant response rating, Morningglory [8, 17] | Morningglory plant response rating [8, 18] | Redroot pigweed plant response rating [9, 19] | Wheat plant response rating [14, 18] | Wheat plant response rating [14, 20]
6: Blackgrass plant response rating [2, 19] | Corn plant response rating [5, 20] | Redroot pigweed plant response rating [9, 18] | Rape plant response rating [10, 20] | Sugarbeets plant response rating [12, 18] | Sugarbeets plant response rating [12, 20] | Plant response rating, Wild oats [15, 17]
4: B. signalgrass plant response rating ([3]; Preemergence, Rate 62 g/ha, scale of 0 to 10 where 0 is no effect and 10 is complete control) | Plant response rating, B. signalgrass [3, 17] | Velvetleaf plant response rating [13, 18]

C#CCn1c(=O)on(C(=O)N(c2ccc(F)cc2)C(C)C)c1=O [Compound 743]
5: Blackgrass plant response rating [2, 22] | Blackgrass plant response rating [2, 23] | Blackgrass plant response rating [2, 24] | Crabgrass plant response rating [6, 22] | Plant response rating, Morningglory [8, 21] | Redroot pigweed plant response rating [9, 23] | Plant response rating, Rape [10, 17] | Rape plant response rating [10, 19] | Wheat plant response rating [14, 20] | Plant response rating, Wild oats [15, 17] | Wild oats plant response rating [15, 18] | Wild oats plant response rating [15, 19]
2: Plant response rating, Crabgrass [6, 21] | Morningglory plant response rating [8, 23] | Plant response rating, Sugarbeets [12, 17] | Plant response rating, Velvetleaf [13, 17] | Nutsedge plant response rating [16, 22] | Nutsedge plant response rating [16, 18]
6: Sugarbeets plant response rating [12, 20] | Wheat plant response rating [14, 24]
7: B. signalgrass plant response rating [3, 24] | Crabgrass plant response rating [6, 23] | Plant response rating, Giant foxtail [7, 21] | Giant foxtail plant response rating [7, 22] | Redroot pigweed plant response rating [9, 19]
10: Cocklebur plant response rating [4, 20] | Morningglory plant response rating [8, 24] | Redroot pigweed plant response rating [9, 20]
8: Bedstraw plant response rating [1, 24] | Bedstraw plant response rating [1, 20] | Plant response rating, Blackgrass [2, 17] | Blackgrass plant response rating [2, 19] | B. signalgrass plant response rating [3, 20] | Giant foxtail plant response rating [7, 23] | Giant foxtail plant response rating [7, 24] | Redroot pigweed plant response rating [9, 24]
4: Bedstraw plant response rating [1, 23] | B. signalgrass plant response rating [3, 18] | Soybean plant response rating [11, 23] | Soybean plant response rating [11, 24] | Sugarbeets plant response rating [12, 18] | Sugarbeets plant response rating [12, 23] | Sugarbeets plant response rating [12, 24] | Velvetleaf plant response rating [13, 24]
0: Plant response rating, Bedstraw [1, 21] | Bedstraw plant response rating [1, 22] | Plant response rating, Bedstraw [1, 17] | Bedstraw plant response rating [1, 18] | Bedstraw plant response rating [1, 19] | Plant response rating, B. signalgrass [3, 21] | B. signalgrass plant response rating [3, 22] | Plant response rating, Cocklebur [4, 21] | Cocklebur plant response rating [4, 22] | Plant response rating, Cocklebur [4, 17] | Cocklebur plant response rating [4, 18] | Cocklebur plant response rating [4, 19] | Cocklebur plant response rating [4, 23] | Plant response rating, Corn [5, 21] | Corn plant response rating [5, 22] | Plant response rating, Corn [5, 17] | Corn plant response rating [5, 18] | Corn plant response rating [5, 19] | Corn plant response rating [5, 23] | Corn plant response rating [5, 24] | Corn plant response rating [5, 20] | Plant response rating, Morningglory [8, 17] | Morningglory plant response rating [8, 18] | Morningglory plant response rating [8, 19] | Morningglory plant response rating [8, 20] | Plant response rating, Redroot pigweed [9, 21] | Redroot pigweed plant response rating [9, 22] | Plant response rating, Rape [10, 21] | Rape plant response rating [10, 22] | Rape plant response rating [10, 23] | Plant response rating, Soybean [11, 21] | Soybean plant response rating [11, 22] | Plant response rating, Soybean [11, 17] | Soybean plant response rating [11, 18] | Soybean plant response rating [11, 19] | Soybean plant response rating [11, 20] | Plant response rating, Sugarbeets [12, 21] | Sugarbeets plant response rating [12, 22] | Sugarbeets plant response rating [12, 19] | Plant response rating, Velvetleaf [13, 21] | Velvetleaf plant response rating [13, 22] | Velvetleaf plant response rating [13, 19] | Velvetleaf plant response rating [13, 23] | Plant response rating, Wheat [14, 21] | Wheat plant response rating [14, 22] | Plant response rating, Wheat [14, 17] | Wheat plant response rating [14, 18] | Wheat plant response rating [14, 19] | Plant response rating, Wild oats [15, 21] | Wild oats plant response rating [15, 22] | Wild oats plant response rating [15, 23] | Plant response rating, Nutsedge [16, 21] | Nutsedge plant response rating [16, 19]
9: Blackgrass plant response rating [2, 18] | Blackgrass plant response rating [2, 20] | Plant response rating, Crabgrass [6, 17] | Crabgrass plant response rating [6, 18] | Crabgrass plant response rating [6, 19] | Crabgrass plant response rating [6, 24] | Crabgrass plant response rating [6, 20] | Plant response rating, Giant foxtail [7, 17] | Giant foxtail plant response rating [7, 18] | Giant foxtail plant response rating [7, 19] | Giant foxtail plant response rating [7, 20] | Plant response rating, Redroot pigweed [9, 17] | Redroot pigweed plant response rating [9, 18] | Rape plant response rating [10, 18] | Rape plant response rating [10, 20] | Wild oats plant response rating [15, 20] | Nutsedge plant response rating [16, 24] | Nutsedge plant response rating [16, 20]
3: Plant response rating, Blackgrass [2, 21] | Plant response rating, B. signalgrass [3, 17] | B. signalgrass plant response rating [3, 23] | Cocklebur plant response rating [4, 24] | Morningglory plant response rating [8, 22] | Rape plant response rating [10, 24] | Velvetleaf plant response rating [13, 18] | Velvetleaf plant response rating [13, 20] | Wheat plant response rating [14, 23] | Wild oats plant response rating [15, 24] | Nutsedge plant response rating [16, 23]
